In patent US20080004290A1, “Anti-Cancer Agents” (THE UNIVERSITY OF QUEENSLAND, priority 2003, published 2008):
Like-named read-outs stand apart in the source and are kept apart here.

Experiments:
Format in all cases: cell-based, human
[1] = test system: NFF, neonatal foreskin fibroblasts; assay: Cell survival assay (clonogenic survival, SRB), normal cells; conditions: Homo sapiens, Fibroblast
Summary of the method: (§1)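 Cells (5×10^3/well, RPMI 1640 with 10% FCS) treated 24 h with compound at 0.01-10 μg/mL, then washed and grown 72 h drug-free at 37 °C, 5% CO2. Survival read by SRB staining after methylated-spirit fixation, absorbance 564 nm.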

[2] = test system: CI-80-13S ovarian cancer cells; assay: Cell survival assay (SRB); conditions: for IC50: Homo sapiens; for Selectivity Index CI80-13S: Table 13, S enantiomer, IC50(NFF)/IC50(cancer cell line)
Description: (§2) Cell Lines and Culture Medium. All cell lines used in this study have been described previously (Parsons et al., 1986; Todaro et al., 1980; Glenn et al., 2004). All cell lines were cultured in 10% heat-inactivated foetal calf serum (CSL, Australia) in RPMI 1640 medium supplemented with 100 U/mL penicillin, 100 μg/mL streptomycin, and 3 mM HEPES at 5% CO2, 99% humidity at 37° C. Primary human fibroblasts were obtained from neonatal foreskins and cultured in the above medium. Routine mycoplasma tests were performed using Hoechst stain^i and were always negative.
(§3) Cell Survival Assay. Cells were plated into 96-well microtitre plates at 5×10^3 cells/well, and allowed to adhere overnight. Test compounds were added to culture medium at the indicated concentrations, and plates incubated in the above conditions for 24 hours. Following this incubation period, compounds and media were removed, and replaced with fresh culture medium. Cells were then grown for a further 72 hours before assay using sulforhodamine B (SRB; Sigma, St. Louis, Mo.) as previously described. Briefly, the culture medium was removed from the 96-well microtitre plates and the plates washed twice with phosphate buffered saline (PBS), before the cells were fixed with methylated spirits for 15 minutes. The plates were then rinsed with tap water and the fixed cells stained with 50 μL/well of SRB solution (0.4% sulforhodamine B (w/v) in 1% (v/v) acetic acid) over a period of 1 hour. The SRB solution was then removed from the wells and the plates rapidly washed two times with 1% (v/v) acetic acid. Protein bound dye was then solubilised with the addition of 100 μL of 10 mM unbuffered Tris, and incubated for 15 min at 25° C. Plates were then read at 564 nm on a VERSA max tunable microplate reader (Molecular Devices, Sunnyvale, Calif.).
(§4) For comparison their results are also shown for MM96L and NFF cell lines.

JAM ovarian cancer cells = assay: Cell survival assay (SRB); conditions: for IC50: Homo sapiens; for Selectivity Index JAM: Table 13, S enantiomer, IC50(NFF)/IC50(cancer cell line)
Description: as §2, §3, §4

[3] = test system: DU145 prostate cancer cells; assay: Cell survival assay (SRB); conditions: for IC50: Homo sapiens, DU-145; for Selectivity Index DU145: Table 13, S enantiomer, IC50(NFF)/IC50(cancer cell line)
Description: as §2, §3, §4

[4] = test system: MCF-7 breast cancer cells; assay: Cell survival assay (SRB); conditions: for IC50: Homo sapiens, MCF7; for Selectivity Index MCF-7: Table 13, S enantiomer, IC50(NFF)/IC50(cancer cell line)
Description: as §2, §3, §4

SkMel28 melanoma cells = assay: Cell survival assay (SRB); conditions: for IC50: Homo sapiens; for Selectivity Index SK-MEL-28: Table 13, S enantiomer, IC50(NFF)/IC50(cancer cell line)
Description: as §2, §3, §4

MM96L melanoma cells = assay: Cell survival assay (clonogenic survival, SRB); conditions: for IC50: Homo sapiens, MM96L; for SI (Selectivity Index = IC50 (NFF)/IC50 (MM96L)): NFF vs MM96L; for Selectivity Index MM96L: Table 13, S enantiomer, IC50(NFF)/IC50(cancer cell line)
Summary of the method: as §1

H520 cells = assay: Cell survival assay (SRB); conditions: for IC50: Homo sapiens, NCI-H520, read-out: Cytoselectivities (nM) H520; for Selectivity Index H520: Table 13, S enantiomer, IC50(NFF)/IC50(cancer cell line)
Description: as §2, §3

SK-MEL-5 cells = assay: Cell survival assay (SRB); conditions: for IC50: Homo sapiens, SK-MEL-5, read-out: Cytoselectivities (nM) SK-MEL-5; for Selectivity Index SK-MEL-5: Table 13, S enantiomer, IC50(NFF)/IC50(cancer cell line)
Description: as §2, §3

A549 cells = assay: Cell survival assay (SRB); conditions: for IC50: Homo sapiens, A549 (lung), read-out: Cytoselectivities (nM) A549; for Selectivity Index A549: Table 13, S enantiomer, IC50(NFF)/IC50(cancer cell line)
Description: as §2, §3

Col208 cells = assay: Cell survival assay (SRB); conditions: for IC50: Homo sapiens, Col208 (colon), read-out: Cytoselectivities (nM) Col208; for Selectivity Index Col208: Table 13, S enantiomer, IC50(NFF)/IC50(cancer cell line)
Description: as §2, §3

HOP62 cells = assay: Cell survival assay (SRB); conditions: for IC50: Homo sapiens, HOP-62, HOP62 (lung), read-out: Cytoselectivities (nM) HOP62; for Selectivity Index HOP62: Table 13, S enantiomer, IC50(NFF)/IC50(cancer cell line)
Description: as §2, §3

PC-3 cells = assay: Cell survival assay (SRB); conditions: for IC50: Homo sapiens, PC-3, read-out: Cytoselectivities (nM) PC-3; for Selectivity Index PC-3: Table 13, S enantiomer, IC50(NFF)/IC50(cancer cell line)
Description: as §2, §3

T-47D cells = assay: Cell survival assay (SRB); conditions: for IC50: Homo sapiens, T47D, read-out: Cytoselectivities (nM) T-47D; for Selectivity Index T-47D: Table 13, S enantiomer, IC50(NFF)/IC50(cancer cell line)
Description: as §2, §3

HT29 cells = assay: Cell survival assay (SRB); conditions: for IC50: Homo sapiens, HT-29, HT29 (colon), read-out: Cytoselectivities (nM) HT29; for Selectivity Index HT29: Table 13, S enantiomer, IC50(NFF)/IC50(cancer cell line)
Description: as §2, §3

DO4 melanoma cells = assay: Cell survival assay (SRB); conditions: Homo sapiens, DO4; Table 10; standard deviations in parentheses; read-out: Cell line IC50 (μM) DO4
Description: as §2, §3, §4

[5] = NFF normal fibroblasts, 24 h with compound, further 72 h growth, SRB, read-out: IC50 (uM) NFF
[6] = read-out: Cytoselectivities (nM) CI80-13S
[7] = read-out: Cytoselectivities (nM) JAM
[8] = DU145 (prostate), read-out: Cytoselectivities (nM) DU145
[9] = MCF-7 (breast), read-out: Cytoselectivities (nM) MCF-7
[10] = SK-MEL-28 (melanoma), read-out: Cytoselectivities (nM) SK-MEL-28
[11] = MM96L melanoma, 24 h with compound, further 72 h growth, SRB, read-out: IC50 (uM) MM96L
[12] = Table 12, read-out: Cytoselectivities (nM) MM96L
[13] = most preferred compounds, exemplary examples, read-out: potency of IC50 against the MM96 melanoma cells

SMILES	IC50 [1, 5]	IC50 [2, 6]	Selectivity Index CI80-13S [2]	IC50 (JAM ovarian cancer cells; [7])	Selectivity Index JAM (JAM ovarian cancer cells)	IC50 [3, 8]	Selectivity Index DU145 [3]	IC50 [4, 9]	Selectivity Index MCF-7 [4]	IC50 (SkMel28 melanoma cells; [10])	Selectivity Index SK-MEL-28 (SkMel28 melanoma cells)	IC50 (MM96L melanoma cells; [11])	IC50 (MM96L melanoma cells; [12])	IC50 (MM96L melanoma cells; [13])	SI (Selectivity Index = IC50 (NFF)/IC50 (MM96L)) (MM96L melanoma cells)	Selectivity Index MM96L (MM96L melanoma cells)	IC50 (H520 cells)	Selectivity Index H520 (H520 cells)	IC50 (SK-MEL-5 cells)	Selectivity Index SK-MEL-5 (SK-MEL-5 cells)	also measured
O=C(CCCCC[C@H](NC(=O)c1cc2ccccc2[nH]1)C(=O)Nc1cccc2cccnc12)NO [Example 132]	0.337 µM	20 nM	17	48 nM	7	22 nM	15	19 nM	18	33 nM	10	0.021 µM	0.018 µM	≤ 0.5 µM	16	19	26 nM	13	18 nM	18	IC50 (A549 cells): 69 nM; Selectivity Index A549 (A549 cells): 5; IC50 (Col208 cells): 102 nM; Selectivity Index Col208 (Col208 cells): 3; IC50 (HOP62 cells): 63 nM; Selectivity Index HOP62 (HOP62 cells): 5; IC50 (PC-3 cells): 148 nM; Selectivity Index PC-3 (PC-3 cells): 2; IC50 (T-47D cells): 19 nM; Selectivity Index T-47D (T-47D cells): 18; IC50 (HT29 cells): 79 nM; Selectivity Index HT29 (HT29 cells): 4
CN(C)c1ccc(C(=O)N[C@@H](CCCCCC(=O)NO)C(=O)Nc2cccc3cccnc23)cc1 [Example 126]	0.57 ± 0.07 µM	65 nM	9	85 nM	7	61 nM	9	35 nM	16	73 nM	8	0.02 ± 0.01 µM	0.051 µM	≤ 0.5 µM	28	11	63 nM	9	32 nM	18	IC50 (A549 cells): 148 nM; Selectivity Index A549 (A549 cells): 4; IC50 (Col208 cells): 223 nM; Selectivity Index Col208 (Col208 cells): 1.5; IC50 (HOP62 cells): 137 nM; Selectivity Index HOP62 (HOP62 cells): 4; IC50 (PC-3 cells): 220 nM; Selectivity Index PC-3 (PC-3 cells): 3; IC50 (T-47D cells): 45 nM; Selectivity Index T-47D (T-47D cells): 13; IC50 (HT29 cells): 178 nM; Selectivity Index HT29 (HT29 cells): 3
O=C(/C=C/c1ccccc1)N[C@@H](CCCCCC(=O)NO)C(=O)Nc1cccc2cccnc12 [Example 146]	1.24 µM	28 nM	44	49 nM	25	30 nM	41	17 nM	71	37 nM	34	0.021 µM	0.02 µM	≤ 0.5 µM	58.9	63	27 nM	46	29 nM	43	IC50 (A549 cells): 73 nM; Selectivity Index A549 (A549 cells): 17; IC50 (Col208 cells): 141 nM; Selectivity Index Col208 (Col208 cells): 9; IC50 (HOP62 cells): 65 nM; Selectivity Index HOP62 (HOP62 cells): 19; IC50 (PC-3 cells): 109 nM; Selectivity Index PC-3 (PC-3 cells): 11; IC50 (T-47D cells): 20 nM; Selectivity Index T-47D (T-47D cells): 63; IC50 (HT29 cells): 99 nM; Selectivity Index HT29 (HT29 cells): 13
CN(C)c1ccc(NC(=O)[C@H](CSCCCC(=O)NO)NC(=O)c2ccc(N(C)C)cc2)cc1 [Example 59]	–	–	–	–	–	–	–	–	–	–	–	–	–	≤ 0.5 µM	–	–	–	–	–	–	IC50 ([1]; 24 h, Table 6, 24 hours with compound, further growth, SRB, read-out: IC50 (μM) NFF): 0.6 ± 0.1 µM; IC50 ([1]; Table 10, standard deviations in parentheses, read-out: Cell line IC50 (μM) NFF): 0.6 µM; IC50 ([2]; C180-13S, Table 10, standard deviations in parentheses, read-out: Cell line IC50 (μM) C18013S): 390 nM; IC50 (JAM ovarian cancer cells; Table 10, standard deviations in parentheses, read-out: Cell line IC50 (μM) JAM): 430 nM; IC50 (DO4 melanoma cells): 1.05 µM; IC50 ([3]; Table 10, standard deviations in parentheses, read-out: Cell line IC50 (μM) DU145): 330 nM; IC50 ([4]; Table 10, standard deviations in parentheses, read-out: Cell line IC50 (μM) MCF7): 390 nM; IC50 (SkMel28 melanoma cells; SK-MEL-28, Table 10, standard deviations in parentheses, read-out: Cell line IC50 (μM) SkMel): 1090 nM; IC50 (MM96L melanoma cells; 24 h, Table 6, 24 hours with compound, further growth, SRB, read-out: IC50 (μM) MM96L): 0.1 ± 0.1 µM; IC50 (MM96L melanoma cells; Table 10, standard deviations in parentheses, read-out: Cell line IC50 (μM) MM96L): 0.1 µM; Selectivity (MM96L melanoma cells; Table 6, IC50 (NFF)/IC50 (MM96L)): 6.0
O=C(CCCCC[C@H](NC(=O)OCc1ccccc1)C(=O)Nc1cccc2cccnc12)NO [Example 148]	0.452 µM	124 nM	4	194 nM	2	131 nM	3	122 nM	4	146 nM	3	0.043 µM	0.108 µM	≤ 0.5 µM	10.5	4	118 nM	4	70 nM	6	IC50 (A549 cells): 248 nM; Selectivity Index A549 (A549 cells): 2; IC50 (Col208 cells): 122 nM; Selectivity Index Col208 (Col208 cells): 4; IC50 (HOP62 cells): 226 nM; Selectivity Index HOP62 (HOP62 cells): 2; IC50 (PC-3 cells): 528 nM; Selectivity Index PC-3 (PC-3 cells): 0.9; IC50 (T-47D cells): 93 nM; Selectivity Index T-47D (T-47D cells): 5; IC50 (HT29 cells): 334 nM; Selectivity Index HT29 (HT29 cells): 1.4
CC(C)COC(=O)N[C@@H](CCCCCC(=O)NO)C(=O)Nc1cccc2cccnc12 [Example 149]	0.081 µM	149 nM	0.5	221 nM	0.4	130 nM	0.6	138 nM	0.6	170 nM	0.5	0.023 µM	0.116 µM	–	3.5	0.7	129 nM	0.6	100 nM	0.8	IC50 (A549 cells): 291 nM; Selectivity Index A549 (A549 cells): 0.3; IC50 (Col208 cells): 395 nM; Selectivity Index Col208 (Col208 cells): 0.2; IC50 (HOP62 cells): 267 nM; Selectivity Index HOP62 (HOP62 cells): 0.3; IC50 (PC-3 cells): 651 nM; Selectivity Index PC-3 (PC-3 cells): 0.1; IC50 (T-47D cells): 198 nM; Selectivity Index T-47D (T-47D cells): 0.4; IC50 (HT29 cells): 360 nM; Selectivity Index HT29 (HT29 cells): 0.2
